From PubChem BioAssay AID248 (DTP/NCI, 2004)
Several values for one entry are separate records, joined by “and”; a condition that tells them apart may be missing. Identical values can stand only once. Inconclusive results and toxic doses are left out. No stated cut-off is given here; in the data, active means T/C of 150% or more; inactive means T/C below 125%.

System: L1210 leukemia ip in BDF1 mice, survival T/C
Test: NCI In Vivo Anticancer Drug Screen. Data for tumor model L1210 Leukemia (intraperitoneal) in B6D2F1 (BDF1) mice
Settings: endpoint: mean survival time, higher = longer survival
Outline: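 Tumor cells were implanted, animals were treated, and survival was followed. The result divides the treated measurement by the vehicle-control measurement.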

[1] = dose: 25.0 mg/kg/injection, schedule: Q01DX009 (ip), vehicle: saline
[2] = dose: 25.0 mg/kg/injection, schedule: Q04DX002 (ip), vehicle: saline
[3] = dose: 25.0 mg/kg/injection, schedule: Q04DX003 (ip), vehicle: saline
[4] = dose: 100.0 mg/kg/injection, schedule: Q01DX001 (ip), vehicle: saline
[5] = dose: 100.0 mg/kg/injection, schedule: Q01DX009 (ip), vehicle: saline with Tween-80
[6] = dose: 100.0 mg/kg/injection, schedule: Q04DX003 (ip), vehicle: saline with Tween-80
[7] = dose: 200.0 mg/kg/injection, schedule: Q01DX009 (ip), vehicle: saline with Tween-80
[8] = dose: 200.0 mg/kg/injection, schedule: Q04DX003 (ip), vehicle: saline with Tween-80
[9] = dose: 100.0 mg/kg/injection, schedule: Q01DX001 (ip), vehicle: carboxymethylcellulose (CMC)
[10] = dose: 200.0 mg/kg/injection, schedule: Q01DX001 (ip), vehicle: carboxymethylcellulose (CMC)
[11] = dose: 400.0 mg/kg/injection, schedule: Q01DX001 (ip), vehicle: carboxymethylcellulose (CMC)
[12] = dose: 100.0 mg/kg/injection, schedule: Q01DX009 (ip), vehicle: Klucel (hydroxypropylcellulose) (HPC)
[13] = dose: 200.0 mg/kg/injection, schedule: Q01DX009 (ip), vehicle: Klucel (hydroxypropylcellulose) (HPC)
[14] = dose: 400.0 mg/kg/injection, schedule: Q01DX009 (ip), vehicle: Klucel (hydroxypropylcellulose) (HPC)
[15] = dose: 100.0 mg/kg/injection, schedule: Q04DX003 (ip), vehicle: Klucel (hydroxypropylcellulose) (HPC)
[16] = dose: 200.0 mg/kg/injection, schedule: Q04DX003 (ip), vehicle: Klucel (hydroxypropylcellulose) (HPC)
[17] = dose: 50.0 mg/kg/injection, schedule: Q01DX009 (ip), vehicle: Klucel (hydroxypropylcellulose) (HPC)
[18] = dose: 200.0 mg/kg/injection, schedule: Q01DX001 (ip), vehicle: saline
[19] = dose: 400.0 mg/kg/injection, schedule: Q01DX001 (ip), vehicle: saline

Measured: T/C

Cc1cc(CSC2=NCCCN2)c(CSC2=NCCCN2)cc1C
inactive: dose: 6.25 mg/kg/injection, schedule: Q01DX001 (ip), vehicle: saline 96 % of control | dose: 6.25 mg/kg/injection, schedule: Q01DX009 (ip), vehicle: saline 100 % of control and 111 % of control | dose: 6.25 mg/kg/injection, schedule: Q04DX002 (ip), vehicle: saline with Tween-80 94 % of control | dose: 6.25 mg/kg/injection, schedule: Q04DX003 (ip), vehicle: saline 91 % of control | dose: 12.5 mg/kg/injection, schedule: Q01DX001 (ip), vehicle: saline 97 % of control | dose: 12.5 mg/kg/injection, schedule: Q01DX009 (ip), vehicle: saline 102 % of control and 92 % of control | dose: 12.5 mg/kg/injection, schedule: Q04DX002 (ip), vehicle: saline with Tween-80 97 % of control | dose: 12.5 mg/kg/injection, schedule: Q04DX003 (ip), vehicle: saline 90 % of control | dose: 25.0 mg/kg/injection, schedule: Q01DX001 (ip), vehicle: saline 99 % of control and 108 % of control | [1] 96 % of control and 101 % of control | dose: 25.0 mg/kg/injection, schedule: Q04DX002 (ip), vehicle: saline with Tween-80 100 % of control | [2] 87 % of control | [3] 89 % of control | [4] 93 % of control

C[As](C)Sc1ccnc(S[As](C)C)n1
inactive: [5] 102 % of control | [6] 96 % of control | [7] 107 % of control | [8] 96 % of control

COc1ccc(C2NCCCC2c2ccccc2)cc1 (stereo not drawn)
inactive: [9] 102 % of control | [10] 94 % of control | [11] 110 % of control

COc1ccc(NC(=O)Nc2ccc(SC)cc2)c(Cl)c1
inactive: [12] 107 % of control | [13] 93 % of control | [14] 104 % of control

O=[N+]([O-])c1ccc(C=C2C=c3ccccc3=C2)cc1
inactive: dose: 12.5 mg/kg/injection, schedule: Q04DX003 (ip), vehicle: Klucel (hydroxypropylcellulose) (HPC) 94 % of control | dose: 25.0 mg/kg/injection, schedule: Q04DX003 (ip), vehicle: Klucel (hydroxypropylcellulose) (HPC) 96 % of control | dose: 50.0 mg/kg/injection, schedule: Q04DX003 (ip), vehicle: Klucel (hydroxypropylcellulose) (HPC) 97 % of control

Nc1c(I)cc([N+](=O)[O-])cc1I
inactive: [15] 95 % of control | [16] 93 % of control | dose: 400.0 mg/kg/injection, schedule: Q04DX003 (ip), vehicle: Klucel (hydroxypropylcellulose) (HPC) 98 % of control

CCCCOC(=O)CSSCC(=O)OCCCC
inactive: [6] 106 % of control | [8] 109 % of control

CCCCCCCCCCCCCCC(F)C(=O)O (stereo not drawn)
inactive: [17] 96 % of control | [12] 101 % of control | [15] 92 % of control | [16] 91 % of control

CC(CCc1ccc2sc3ccccc3c2c1)C(N)=O (stereo not drawn)
inactive: [4] 94 % of control | [18] 92 % of control | [19] 94 % of control

COc1cc(C(O)CN)cc(OC)c1OC (stereo not drawn)
inactive: [1] 100 % of control | [3] 88 % of control | dose: 50.0 mg/kg/injection, schedule: Q01DX009 (ip), vehicle: saline 94 % of control | dose: 50.0 mg/kg/injection, schedule: Q04DX003 (ip), vehicle: saline 94 % of control | dose: 100.0 mg/kg/injection, schedule: Q01DX009 (ip), vehicle: saline 104 % of control | dose: 100.0 mg/kg/injection, schedule: Q04DX003 (ip), vehicle: saline 88 % of control | dose: 200.0 mg/kg/injection, schedule: Q01DX009 (ip), vehicle: saline 110 % of control | dose: 200.0 mg/kg/injection, schedule: Q04DX003 (ip), vehicle: saline 94 % of control | dose: 400.0 mg/kg/injection, schedule: Q04DX003 (ip), vehicle: saline 91 % of control

CC1C(N)CC2CC1C2(C)C (stereo not drawn)
inactive: dose: 12.5 mg/kg/injection, schedule: Q04DX002 (ip), vehicle: saline 113 % of control | [2] 102 % of control | dose: 50.0 mg/kg/injection, schedule: Q04DX002 (ip), vehicle: saline 102 % of control

C/C=C/C=C/COC(=O)CCCCCCCCC
inactive: dose: 100.0 mg/kg/injection, schedule: Q04DX002 (ip), vehicle: saline 100 % of control | dose: 200.0 mg/kg/injection, schedule: Q04DX002 (ip), vehicle: saline 121 % of control | dose: 400.0 mg/kg/injection, schedule: Q04DX002 (ip), vehicle: saline 108 % of control

O=C(Nc1ccc(Cl)c([N+](=O)[O-])c1)Nc1nnc(Br)s1
inactive: [12] 104 % of control | [13] 90 % of control | [14] 97 % of control

c1ccc2c(c1)CCC1C3CCCC3OCN21 (stereo not drawn)
inactive: dose: 50.0 mg/kg/injection, schedule: Q04DX002 (ip), vehicle: saline with Tween-80 101 % of control | dose: 100.0 mg/kg/injection, schedule: Q04DX002 (ip), vehicle: saline with Tween-80 101 % of control | dose: 200.0 mg/kg/injection, schedule: Q04DX002 (ip), vehicle: saline with Tween-80 104 % of control

Sc1cccc2cccnc12.[Ni]
inactive: dose: 50.0 mg/kg/injection, schedule: Q01DX001 (ip), vehicle: saline 111 % of control | [4] 98 % of control | [18] 98 % of control | [19] 98 % of control

O=C(NC(=S)Nc1ccc(Cl)cc1)c1ccccc1
inactive: dose: 25.0 mg/kg/injection, schedule: Q01DX009 (ip), vehicle: Klucel (hydroxypropylcellulose) (HPC) 95 % of control | [17] 93 % of control | [12] 93 % of control and 89 % of control

O=C(Nc1cc([N+](=O)[O-])ccc1O)Nc1cc(C(F)(F)F)ccc1Cl
inactive: [9] 90 % of control | dose: 100.0 mg/kg/injection, schedule: Q01DX009 (ip), vehicle: carboxymethylcellulose (CMC) 95 % of control and 103 % of control | dose: 100.0 mg/kg/injection, schedule: Q04DX002 (ip), vehicle: carboxymethylcellulose (CMC) 97 % of control and 101 % of control | dose: 100.0 mg/kg/injection, schedule: Q04DX003 (ip), vehicle: carboxymethylcellulose (CMC) 94 % of control | [10] 93 % of control | dose: 200.0 mg/kg/injection, schedule: Q01DX009 (ip), vehicle: carboxymethylcellulose (CMC) 93 % of control and 95 % of control | dose: 200.0 mg/kg/injection, schedule: Q04DX002 (ip), vehicle: carboxymethylcellulose (CMC) 93 % of control and 97 % of control | dose: 200.0 mg/kg/injection, schedule: Q04DX003 (ip), vehicle: carboxymethylcellulose (CMC) 92 % of control | [11] 92 % of control | dose: 400.0 mg/kg/injection, schedule: Q01DX009 (ip), vehicle: carboxymethylcellulose (CMC) 92 % of control and 93 % of control | dose: 400.0 mg/kg/injection, schedule: Q04DX002 (ip), vehicle: carboxymethylcellulose (CMC) 92 % of control and 90 % of control | dose: 400.0 mg/kg/injection, schedule: Q04DX003 (ip), vehicle: carboxymethylcellulose (CMC) 97 % of control

CC(C)(C)Sc1cccnc1
inactive: [5] 94 % of control | [7] 98 % of control

Nc1cnc(N)nc1
inactive: dose: 75.0 mg/kg/injection, schedule: Q01DX Z (ip), vehicle: saline 103 % of control | dose: 150.0 mg/kg/injection, schedule: Q01DX Z (ip), vehicle: saline 111 % of control
